One test addresses T1, PPARγ (Homo sapiens, UniProt P37231).
T1 sequence (P37231 195-477 isoform P37231-2 limits assumed): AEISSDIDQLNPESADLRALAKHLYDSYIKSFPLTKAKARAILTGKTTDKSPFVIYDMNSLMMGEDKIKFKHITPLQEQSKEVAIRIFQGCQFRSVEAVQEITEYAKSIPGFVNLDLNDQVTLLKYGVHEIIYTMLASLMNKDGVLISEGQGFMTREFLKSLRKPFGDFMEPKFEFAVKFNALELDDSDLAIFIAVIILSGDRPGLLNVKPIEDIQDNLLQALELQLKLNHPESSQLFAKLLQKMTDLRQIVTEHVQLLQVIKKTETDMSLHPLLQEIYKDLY
The test can be described thus: SPR on immobilized PPARγ. Format: binding. Particulars: SPR, immobilized PPARγ. On the procedure: ; SPR analysis was also performed using the immobilized PPARγ LBD to evaluate if this protein portion was involved in the interaction with 1; […]. Conversely, no affinity of the diterpene towards Hsp60 was observed (Fig. 2c).
To assess the potential of 1 to act as a PPARγ modulator, we investigated the structural and functional aspects of its interaction with this nuclear receptor. To define the structural features required by 1 for an efficient interaction with PPARγ, as a first step, we performed SPR analyses using some diterpenes displaying structural relationship with 1 (compounds 2–9, Fig. 1). […]. SPR analyses were carried out on a BIACORE 3000 instrument (GE-Healthcare). PPARα, PPARγ, PPARδ and HSP60 surfaces were prepared on research−grade CM5 sensor chips (GE Healthcare). Proteins (100 μg/ml in 10 mM CH3COONa, pH 5.0) were immobilized using a standard amine−coupling protocol, to obtain densities of 3–5 kRU. Testing compounds were dissolved in 100% DMSO to obtain 4 mM solutions, and then diluted in PBS containing variable amounts of DMSO, achieving a final DMSO concentration of 0.1%. […]. SPR experiments and data elaboration were carried out as reported elsewhere.

The test system of the next test is HT-29 cells. Briefly: HT-29 cell growth (cell counting). Particulars: GW9662 10 μM 6 h, then compound 10 μM for 24 and 48 h.

“Also recorded” adds a separate entry of the source.

The term Kd denotes the equilibrium constant for the complex coming apart. High values mean weaker binding, low ones tighter binding. In general, koff refers to the rate constant with which the complex falls apart.

Protocol for HT-29 cells: Data are the mean ± SD of three independent experiments performed in duplicate giving similar results. Significance is indicated as *p ≤ 0.05, **p ≤ 0.01 and ***p ≤ 0.001. (b) HT29 cells were seeded in 24-well in order to reach the density of cells/cm^2 in standard conditions (10^5 cells). […] The experiments were performed in triplicate and the data expressed as mean ± SD. Significance is indicated as **p ≤ 0.01 and ***p ≤ 0.001.

As for `C=C1C2CCC3C(CCC4[C@@H](C(=O)OC)C[C@@H](O)C[C@]43C)(C2)[C@H]1O` (some centres unmarked) [Compound 2], at PPARγ, binding was characterised by a dissociation constant (Kd) of 1.86 ± 0.078 µM and the koff turned out to be 0.051 s⁻¹.
The like results for `C=C1C2CCC3C(CCC4[C@@H](C(=O)OC)C[C@@H](O)C[C@]43C)(C2)[C@@H]1O` (some centres unmarked) [Compound 3] were, in that order, 4.59 ± 0.206 µM and 0.096 s⁻¹.
As to `C=C1C2CCC3C(CCC4[C@@H](C(=O)O)C[C@@H](O)C[C@]43C)(C2)[C@H]1O` (some centres unmarked) [Compound 4], the KD result at PPARγ was “No binding”.
`C=C1C2CCC3C(CCC4[C@@H](CO)C[C@@H](O)C[C@]43C)(C2)[C@H]1O` (some centres unmarked) [Compound 5]: the KD result at PPARγ is given as “No binding”.
In the case of `C=C1C2CCC3C(CCC4[C@@H](C(=O)OC)C[C@@H](OC(C)=O)C[C@]43C)(C2)[C@H]1OC(C)=O` (some centres unmarked) [Compound 6], the KD entry at PPARγ is listed as “No binding”.
Same read-out and setting: next, `CC1CC23CC1CCC2[C@]1(C)C[C@H](C)C[C@](C)(C(=O)O)C1CC3=O` (some centres unmarked) [Compound 7]: “No binding”; `C=C1C(=O)C23C(O)C1CCC2C12COC3(O)C(O)C1C(C)(C)CCC2O` (centres unmarked) [Compound 8]: “not detected; also recorded: No binding”.
As to `C=C1C(=O)C23CCC4[C@@]5(C)C[C@@H](O)C[C@@]4(OC5=O)[C@@]2(C)CC[C@]1(O)C3` (some centres unmarked) [Compound 9], at PPARγ, the KD result is “not detected; also recorded: No binding”.
Turning to `CN(CCOc1ccc(CC2SC(=O)NC2=O)cc1)c1ccccn1` (centres unmarked) [Rosiglitazone, reference compound], the “cell counts after GW9662 pre-treatment versus compound alone” value in the test with HT-29 cells is “less pronounced effect”.

(Values after paper PMC5259791 (Scientific Reports, 2017).)
